Our source for the TGI and GI50 values is PubChem BioAssay (NCI).

Among the test systems are PC-3 prostate; SNB-75 CNS; HT29 colon; SK-OV-3 ovarian; SK-MEL-28 melanoma; SR leukemia; HCC-2998 colon; NCI/ADR-RES ovarian; EKVX NSCLC; OVCAR-8 ovarian.
Assay in all cases: growth of human tumour cells (NCI), 48 h

Each structure is given as a SMILES string.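 Protocol summary: plate cells (96-well), add compound at 5 concentrations, incubate 48 h, interpolate endpoints linearly. GI50 = concentration required for 50% inhibition of growth. Definition used: TGI = concentration required for complete inhibition of growth.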 Bounds are passed on as bounds.

Consider `COc1cc(/C=C2\C(=O)N(c3cccc(NC(C)=O)c3)C(c3ccccc3)S2(=O)=O)cc(OC)c1OC` (stereo unspecified), for which the TGI with PC-3 prostate, with SNB-75 CNS, in the test on HT29 colon, in the test with SK-OV-3 ovarian, in the test on SK-MEL-28 melanoma and with SR leukemia was > 100 µM each time. Moreover, the TGI in the test with HCC-2998 colon, in the test on NCI/ADR-RES ovarian, in the test with EKVX NSCLC and in the test with OVCAR-8 ovarian was > 100 µM in each case.
As for `O=C(Cn1c2ccc(Br)cc2c2nc3ccccc3nc21)NCc1ccccc1`, the TGI is > 100 µM in the test with PC-3 prostate; 19.8 µM in the test with SNB-75 CNS; > 100 µM in the test with HT29 colon; > 100 µM in the test on SK-OV-3 ovarian; > 100 µM with SK-MEL-28 melanoma; > 100 µM in the test with SR leukemia. For the same compound, the TGI in the test on HCC-2998 colon, with NCI/ADR-RES ovarian and in the test on OVCAR-8 ovarian was > 100 µM throughout.
For the compound `CCO/N=C\c1ccc2oc(-c3ccccc3)cc(=O)c2c1`, the TGI with PC-3 prostate was 20.4 µM; in the test with SNB-75 CNS it was 13.8 µM; with HT29 colon, 5.34 µM; with SK-OV-3 ovarian, 24 µM; in the test with SK-MEL-28 melanoma, > 100 µM; in the test with SR leukemia it was 1.99 µM. Further, the TGI with HCC-2998 colon was determined as 6.08 µM; in the test with NCI/ADR-RES ovarian it was 0.436 µM; in the test with EKVX NSCLC it was 36.8 µM; in the test with OVCAR-8 ovarian, 12.5 µM.
As for `COC(=O)[C@@]12CSC[C@]1(C(=O)OC)N[C@@H](c1ccccc1O)C2`, the TGI in the test with PC-3 prostate, with SNB-75 CNS, in the test on HT29 colon, in the test on SK-OV-3 ovarian, in the test with SK-MEL-28 melanoma and in the test on SR leukemia was > 100 µM each time. The TGI in the test with HCC-2998 colon, in the test with NCI/ADR-RES ovarian, in the test on EKVX NSCLC and in the test with OVCAR-8 ovarian was > 100 µM each time.
Regarding `O=C(N/N=C\c1ccc(Cl)cc1)Nc1ccc2ccccc2c1`, the TGI was > 100 µM in the test on PC-3 prostate; 76.8 µM in the test on SNB-75 CNS; > 100 µM in the test on HT29 colon; > 100 µM in the test with SK-OV-3 ovarian; > 100 µM in the test with SK-MEL-28 melanoma; > 100 µM in the test on SR leukemia. The TGI in the test on HCC-2998 colon was > 100 µM; in the test with NCI/ADR-RES ovarian, > 100 µM; in the test on EKVX NSCLC, > 100 µM; with OVCAR-8 ovarian, 73.2 µM.
In the case of `ClCCCN1CCN(CCCl)CC1`, the TGI in the test with PC-3 prostate is > 1000 µM; in the test on SNB-75 CNS, 681 µM; in the test with HT29 colon, > 818 µM; in the test on SK-OV-3 ovarian it was 166 µM; in the test on SK-MEL-28 melanoma, > 1000 µM; in the test on HCC-2998 colon, 997 µM. Moreover, the TGI in the test with NCI/ADR-RES ovarian is 628 µM; in the test on EKVX NSCLC it was 873 µM; with OVCAR-8 ovarian, 348 µM. Also, the results for the GI50 in the test with SNB-75 CNS, in the test with SR leukemia and in the test on NCI/ADR-RES ovarian were 43.2 µM, 3.44 µM and 66.3 µM, respectively.
In the case of `COc1cc2ncnc(NS(=O)(=O)c3cc4ccccc4s3)c2cc1OC`, the TGI in the test with PC-3 prostate, in the test with SNB-75 CNS, in the test with HT29 colon, in the test on SK-OV-3 ovarian, in the test with SR leukemia and with HCC-2998 colon was > 100 µM in each case. Also, the TGI with NCI/ADR-RES ovarian, in the test on EKVX NSCLC and in the test on OVCAR-8 ovarian was > 100 µM throughout.
With `CN1C/C(=C\c2cccs2)C2=NN(c3ccccc3)C(c3cccs3)C2C1` (stereo unspecified), the TGI in the test with PC-3 prostate is > 100 µM; in the test with HT29 colon, 22.4 µM; with SK-OV-3 ovarian, > 100 µM; in the test on SK-MEL-28 melanoma it was > 100 µM; in the test with SR leukemia it was > 100 µM; with HCC-2998 colon, > 100 µM. Further, the TGI in the test with NCI/ADR-RES ovarian, in the test on EKVX NSCLC and with OVCAR-8 ovarian was > 100 µM throughout.
For the compound `Cc1cccc2c(=O)c3cccc([C@H](C)C(=O)O)c3oc12`, the TGI with PC-3 prostate, with HT29 colon, with SK-OV-3 ovarian, in the test on SK-MEL-28 melanoma, in the test on SR leukemia and with HCC-2998 colon was > 100 µM each time. Moreover, the TGI in the test on NCI/ADR-RES ovarian, with EKVX NSCLC and in the test on OVCAR-8 ovarian was > 100 µM throughout.
In the case of `CCOP(=O)(OCC)C(c1ccc(F)cc1)N(C(=O)NC(F)(F)F)c1ccc(F)cc1` (stereo unspecified), the TGI in the test with PC-3 prostate, in the test on SNB-75 CNS, with HT29 colon, in the test on SK-MEL-28 melanoma, in the test with SR leukemia and in the test on HCC-2998 colon was > 100 µM in each case. Moreover, the TGI with NCI/ADR-RES ovarian, in the test with EKVX NSCLC and in the test on OVCAR-8 ovarian was > 100 µM throughout.
For `O=C1OC(C(O)CO)C(C(O)CO)OC1=O` (stereo unspecified), the TGI in the test on PC-3 prostate, with HT29 colon, with SK-MEL-28 melanoma, in the test on SR leukemia, in the test on HCC-2998 colon and with NCI/ADR-RES ovarian was > 10 µM in each case. The TGI in the test on EKVX NSCLC and with OVCAR-8 ovarian was > 10 µM in each case.
Take `Cc1cc(=O)[nH]c2cc(NC(=O)C(C)NC(=O)C(C)NC(=O)C(C)NC(=O)OC(C)(C)C)ccc12` (stereo unspecified): the TGI in the test on PC-3 prostate, with SNB-75 CNS, in the test with HT29 colon, in the test on SK-MEL-28 melanoma, in the test on SR leukemia and with HCC-2998 colon was > 15 µM throughout. For the same compound, the TGI in the test on NCI/ADR-RES ovarian, in the test with EKVX NSCLC and with OVCAR-8 ovarian was > 15 µM in each case.
Regarding `COc1ccc(-c2c(C#N)c(N)[nH]c(=S)c2C#N)cc1`, the TGI with PC-3 prostate is > 100 µM; in the test with HT29 colon it was > 100 µM; in the test on SK-MEL-28 melanoma, > 100 µM; in the test with SR leukemia, > 100 µM; in the test on HCC-2998 colon it was 72.2 µM; in the test on NCI/ADR-RES ovarian, > 100 µM. The TGI in the test with EKVX NSCLC and in the test with OVCAR-8 ovarian was > 100 µM throughout.
Regarding `N=C1OC(CN2CCN(c3ccccc3)CC2)CN1C(=O)Nc1ccccc1` (stereo unspecified), the TGI with PC-3 prostate, with HT29 colon, in the test with SK-OV-3 ovarian, in the test on SK-MEL-28 melanoma, in the test with SR leukemia and in the test on HCC-2998 colon was > 100 µM each time. Also, the TGI in the test with NCI/ADR-RES ovarian, in the test on EKVX NSCLC and in the test on OVCAR-8 ovarian was > 100 µM each time.
